For test [1], the system named is 22Rv1 cells. Kind of test: Invasion assay, 22Rv1 cells. The format is cell-based, human. The conditions noted are these: 10 nM R1881, compound 1 μM; compared with LNCaP. Here is the method:
(§1) In wound scratch analysis, 1.8 × 10^5 cells were seeded in a 24-well plate and made quiescent. Cells were then wounded using 10 µl sterile pipette tips and washed with PBS. They were left un-stimulated or stimulated for the indicated times, in the absence or presence of the selected compounds. To avoid cell proliferation, cytosine arabinoside (Sigma-Aldrich) at 50 μM (final concentration) was included in the cell medium. Different fields were analysed by contrast-phase microscopy, as below described in this section. Migration and invasion assays were done as reported. In migration assay, we used 3 × 10^4 cells in collagen pre-coated Boyden’s chambers with 8 μm polycarbonate membrane (Falcon). The indicated stimuli were added to the upper and the lower chambers. […] Migrating and invading cells were scored by fluorescence microscopy, as below described in this section.
(§2) In wound scratch assay, different fields were analysed using DMIRB inverted microscope (Leica) equipped with N-Plan 10 × objective (Leica), as reported. LNCaP organoids were analysed using the same microscope equipped with C-Plan 40 × or HCX PL Fluotar 63 × objectives (Leica). […] The relative organoid size was calculated using the same software and expressed as a fold increase over the basal organoid size (measured at 3th day). The wound gap was calculated using Image J Software and expressed as % of the decrease in the wound area. […]

Test [2] concerns FAK, paxillin, ERK, RSK and Src tyrosine kinase. Kind of test: Western blot of androgen-induced rapid actions in LNCaP cells (Fig. 6c). It is filed as cell-based, human. Conditions: 10 nM R1881, 10 min, compound 1 μM. From the text: (§3) All performed as reported. The mouse monoclonal anti-AR (441; Santa Cruz) antibody was used in Co-Ip or WB approaches. TRPM8 was detected using the rabbit polyclonal anti-TRPM8 (NBP1-97311; Novus Biological). […] The rabbit polyclonal anti-ERK (C-14; Santa Cruz), antibody was used to detect total ERK. FAK and P-Tyr397 FAK were detected using the mouse monoclonal anti-FAK (Clone 77/610077 BD Transduction Laboratories) or anti P-Tyr397 FAK (Clone 14/611722; BD Transduction Laboratories) antibodies, respectively. P-Tyr118 paxillin and total paxillin were detected using the rabbit polyclonal anti-P-Y118 (#2541, Cell Signaling) or the mouse monoclonal anti-paxillin (clone 349; BD Biosciences) antibodies, respectively. […] P-Tyr 416 Src and Src were detected using the rabbit monoclonal anti P-Tyr 416 Src (#6943; Cell Signaling) or the mouse monoclonal anti Src (Calbiochem) antibodies, respectively. ERα and ERβ were detected using the rabbit polyclonal anti-ERα (543; Santa Cruz) or anti-ERβ (Upstate Biotechnology, U.S.A.) antibodies. Cyclin D1, p27 and Cdk4 were stained using the mouse monoclonal anti-cyclin D1 (clone AM29; from Zymed Laboratories Inc.), the rabbit polyclonal anti-p27 (C-19; Santa Cruz) or anti Cdk-4 (c-22; Santa Cruz) antibodies, respectively. The mouse monoclonal anti-tubulin (Sigma-Aldrich) antibody was used to detect tubulin. The ECL system (GE Healthcare) was employed to reveal immune-reactive proteins. Densitometric analysis of WB was performed by using Image J Software (https://imagej.nih.gov/ij).
On the technique in general: A western blot detects proteins with antibodies after separation by electrophoresis.

For test [3], the system named is LNCaP cells. Kind of test: Wound scratch assay in LNCaP cells. It is filed as cell-based, human. The conditions noted are these: 10 nM R1881, 20 h, compound 1 μM. How it is done:
as §1, §2

Test [4] deals with PC3 cells. Kind of test: Wound scratch assay in PC3 cells. It is filed as cell-based. The conditions noted are these: cycling or quiescent cells, 10 nM R1881, compound 1 µM. Here is the method:
as §1, §2

Test [5] has as its system C4-2B cells. Description: DNA synthesis (BrdU incorporation) in C4-2B cells. The format is cell-based, human. How it is done: (§4) Cells on coverslips were pulsed in vivo with BrdU (Sigma-Aldrich; at 100 μM, final concentration) and left unchallenged or challenged with 10 nM R1881 for 18 h, in the absence or presence of the indicated compounds. Cells were fixed, permeabilized, washed and the BrdU incorporation was analysed as reported. Nuclei were stained with Hoechst and cells on coverslips were scored by IF microscopy, using a DMLB Leica (Leica) fluorescent microscope, equipped with HCX PL Apo 63 × oil objective. Different fields from each coverslip were analyzed and BrdU incorporation was calculated by the formula: percentage of BrdU-positive cells = (No. of BrdU-positive cells/No. of total cells) × 100. Data in the graphs derive from at least 1000 scored cells for each coverslip. Representative images were captured using DC480 camera (Leica) and acquired using Leica Suite software. They are representative of three different experiments.

The test system of test [6] is 22Rv1 cells. Description: Transmigration assay, 22Rv1 cells. It is filed as cell-based, human. The conditions noted are these: 10 nM R1881, compound 1 μM; compared with LNCaP. Here is the method:
as §1, §2

In test [7] the test system is LNCaP cells. Description: Invasion assay in Matrigel, LNCaP cells. The conditions noted are these: for androgen-induced invasion: 10 nM R1881, compound 1 μM; for invasion in the absence of hormone: compound 1 μM alone. The format is cell-based, human. Here is the method:
(§5) In wound scratch analysis, 1.8 × 10^5 cells were seeded in a 24-well plate and made quiescent. Cells were then wounded using 10 µl sterile pipette tips and washed with PBS. They were left un-stimulated or stimulated for the indicated times, in the absence or presence of the selected compounds. To avoid cell proliferation, cytosine arabinoside (Sigma-Aldrich) at 50 μM (final concentration) was included in the cell medium. Different fields were analysed by contrast-phase microscopy, as below described in this section. Migration and invasion assays were done as reported. In migration assay, we used 3 × 10^4 cells in collagen pre-coated Boyden’s chambers with 8 μm polycarbonate membrane (Falcon). The indicated stimuli were added to the upper and the lower chambers. Cytosine arabinoside (at 50 μM) was included in the cell medium. After 7 h, non-migrating cells from the membrane upper surface were removed using a sterile cotton swab. In invasion assay, we used 5 × 10^4 cells in Boyden’s chambers with 8 μm polycarbonate membrane (Falcon) pre-coated with growth factor reduced- and phenol red-free Matrigel (Corning). The indicated stimuli were added to the upper and the lower chambers. Cytosine arabinoside (at 50 μM) was included in the cell medium. After 24 h, non-invading cells from the membrane upper surface were removed using a sterile cotton swab. In migration and invasion assays, the membranes were fixed for 20 min in 4% paraformaldehyde, stained with Hoechst (Sigma-Aldrich), removed with forceps from the companion plate and mounted. Migrating and invading cells were scored by fluorescence microscopy, as below described in this section.
(§6) In wound scratch assay, different fields were analysed using DMIRB inverted microscope (Leica) equipped with N-Plan 10 × objective (Leica), as reported. LNCaP organoids were analysed using the same microscope equipped with C-Plan 40 × or HCX PL Fluotar 63 × objectives (Leica). Images were captured using a DFC 450C camera (Leica) and acquired using the Application Suite Software (Leica). They are representative of three different experiments. The relative organoid size was calculated using the same software and expressed as a fold increase over the basal organoid size (measured at 3th day). The wound gap was calculated using Image J Software and expressed as % of the decrease in the wound area. Migrating or invading cells from at least 30 fields/each membrane were scored, using a DMLB (Leica) fluorescent microscope, equipped with HCPL Fluotar 20 × objective.

For test [8], the system named is DU-CaP cells. Kind of test: DNA synthesis (BrdU incorporation) in DU-CaP cells. The format is cell-based, human. The conditions noted are these: 10 nM R1881, 18 h, compound 1 μM. Here is the method: as §4
(In general: Dividing cells build labelled thymidine or BrdU into new DNA.)

Test [9] deals with DU145 cells. Kind of test: DNA synthesis (BrdU incorporation) in DU145 cells. It is filed as cell-based. The conditions noted are these: cycling or androgen-stimulated (10 nM R1881) cells, compound 1 µM. How it is done:
as §4

Test [10] concerns PC3 cells. Description: DNA synthesis (BrdU incorporation) in PC3 cells. The format is cell-based. The conditions noted are these: cycling or androgen-stimulated (10 nM R1881) cells, compound 1 µM. How it is done:
as §4

Test [11] has as its system DU145 cells. Description: Wound scratch assay in DU145 cells. It is filed as cell-based. The conditions noted are these: cycling or quiescent cells, 10 nM R1881, compound 1 µM. Here is the method:
as §1, §2

The test system of test [12] is DU-CaP cells. Kind of test: Invasion assay, DU-CaP cells. The format is cell-based, human. The conditions noted are these: 10 nM R1881, compound 1 μM; compared with LNCaP. How it is done:
as §1, §2

In test [13] the test system is DU-CaP cells. Kind of test: Transmigration assay, DU-CaP cells. Conditions: 10 nM R1881, compound 1 μM; compared with LNCaP. It is filed as cell-based, human. How it is done: as §1, §2
Test [14] concerns LNCaP cells. Description: Transmigration assay in Boyden chamber, LNCaP cells. The format is cell-based, human. The conditions noted are these: for androgen-induced cell migration: 10 nM R1881, compound 1 μM; for migration when added alone: compound 1 μM, no hormone. How it is done: as §5, §6
Test [15] relates to ERK, RSK. Kind of test: Western blot of ERK and RSK activation in LNCaP cells. It is filed as cell-based, human. Conditions: compound 1 μM; for androgen-triggered ERK and RSK activation: 10 nM R1881, 10 min; for ERK and RSK phosphorylation/activation when used alone: no R1881.
Excerpt: as §3

The subject of test [16] is 22Rv1 cells. Kind of test: DNA synthesis (BrdU incorporation) in 22Rv1 cells. It is filed as cell-based, human. The conditions noted are these: 10 nM R1881, 18 h, compound 1 μM. Here is the method:
as §4

Test [17] concerns FAK, paxillin. Description: Western blot of FAK activation and paxillin phosphorylation in LNCaP cells. The format is cell-based, human. The conditions noted are these: for androgen-elicited FAK activation and paxillin phosphorylation: 10 nM R1881, 10 min; for androgen-elicited FAK activation and paxillin phosphorylation / FAK or paxillin phosphorylation when used alone: compound 1 μM; for FAK or paxillin phosphorylation when used alone: no R1881.
Excerpt: as §3

Setting [18] is: cycling cells, 18 h, 100 nM and 1 μM.

The values below come from article PMC8636514, “Therapeutic potential of TRPM8 antagonists in prostate cancer” (Scientific Reports, 2021).

For `c1ccc(COc2ccc3[nH]cc(CCNCc4ccc(Oc5ccccc5)cc4)c3c2)cc1` [Compound 4], the androgen-induced invasion result in test [1] is on record as “Superimposable results”; in test [7], “reversed”; in test [12], “Superimposable results”. The “androgen-elicited activation of FAK, paxillin, ERK, RSK and Src” value in [2] is reported as “impaired at similar extent”. Also, the “wound-gap closure in androgen-treated cells” value in test [3] is “stronger effect”. Further, the wound closure result in test [4] and in test [11] was “did not modify” each time. Further, the BrdU incorporation result is reported as “inhibited” in test [5] (setting [18]), “did not affect” in test [9] and “did not affect” in test [10]. The androgen-induced migration result in test [6] and in test [13] was “Superimposable results” each time. Further, in test [7], the “invasion in the absence of hormone” value is on record as “negligible effect”. Besides, the “androgen-stimulated BrdU incorporation” value in test [8] and in test [16] was “significantly inhibited” throughout. For the same molecule, the androgen-induced cell migration result in test [14] was “inhibited”. Further, in [14], the “migration when added alone” value is “leaving unaffected”. In addition, the “androgen-triggered ERK and RSK activation” value in [15] is “inhibited”. The “ERK and RSK phosphorylation/activation when used alone” value in test [15] is “leaving unaffected”. Moreover, in test [17], the “androgen-elicited FAK activation and paxillin phosphorylation” value is given as “impaired”. For the same molecule, the “FAK or paxillin phosphorylation when used alone” value in test [17] was “did not affect”.

On to `COC(=O)[C@H](Cc1c[nH]c2ccccc12)N(Cc1ccccc1)Cc1ccccc1` [Compound 6], for which the androgen-induced invasion entry in test [1] is “Superimposable results”; in test [7], “reversed”; in test [12] it was “Superimposable results”. Moreover, in test [2], the “androgen-elicited activation of FAK, paxillin, ERK, RSK and Src” value is on record as “impaired at similar extent”. Besides, the “wound-gap closure in androgen-treated cells” value in test [3] is “stronger effect”. Also, the wound closure result in test [4] and in test [11] was “did not modify” throughout. Also, the BrdU incorporation result in test [5] (setting [18]) is “inhibited”; in [9] it was “did not affect”; in test [10], “did not affect”. Moreover, the androgen-induced migration entry in test [6] and in test [13] was “Superimposable results” throughout. The “invasion in the absence of hormone” value in test [7] is on record as “negligible effect”. The “androgen-stimulated BrdU incorporation” value in test [8] and in test [16] was “significantly inhibited” each time. Moreover, the androgen-induced cell migration result in test [14] is “inhibited”. The “migration when added alone” value in test [14] is given as “leaving unaffected”. In addition, the “androgen-triggered ERK and RSK activation” value in [15] is reported as “inhibited”. The “ERK and RSK phosphorylation/activation when used alone” value in [15] is “leaving unaffected”. In addition, the “androgen-elicited FAK activation and paxillin phosphorylation” value in [17] is listed as “impaired”. Besides, in test [17], the “FAK or paxillin phosphorylation when used alone” value is listed as “did not affect”.

As for `C[C@]1(O)CC[C@H]2[C@@H]3CCC4=CC(=O)CCC4=C3C=C[C@@]21C` [Compound R1881, reference compound], the BrdU incorporation result in test [5] (10 nM R1881 (not shown)) is “did not observe any effect”. Also, in [7] (10 nM R1881 alone), the “increase in number of invading cells in Matrigel” value was 1,6 folds. Moreover, the “increase in number of migrating cells” value in test [14] (10 nM R1881 alone) was roughly 3 folds. Further, the “FAK activation and paxillin phosphorylation” value in [17] (10 nM R1881 alone, within 10 min) was “triggered”.
